In the supplement of paper PMC10920090:

How the values were obtained:
MDA-MB-231 [1] = assay: drug sensitivity score (DSS), cytotoxicity CellTox Green; higher = more cytotoxic; extreme values may be limits of the assay; settings: 72 h
MDA-MB-231 [2] = assay: drug sensitivity score (DSS), cell viability CellTiter-Glo; higher = more sensitive; extreme values may be limits of the assay; settings: 72 h
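Throughout, for drug sensitivity score (DSS), cytotoxicity CellTox Green: DSS summarises each dose–response curve by combining IC50, EC50, maximal inhibition and efficacy across drug concentrations.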

Row | Structure (SMILES) | drug sensitivity score (MDA-MB-231 [1]; shRNA: shPPFIA1_1) [DSS] | drug sensitivity score (MDA-MB-231 [1]; shRNA: shScramble) [DSS] | drug sensitivity score (MDA-MB-231 [2]; shRNA: shPPFIA1_1) [DSS] | drug sensitivity score (MDA-MB-231 [2]; shRNA: shScramble) [DSS]
1 | O=C1c2c(O)ccc(O)c2C(=O)c2c(NCCNCCO)ccc(NCCNCCO)c21 [Mitoxantrone] | 0 | 0 | 0 | 3.2
2 | Nc1nc2[nH]cc(CCc3ccc(C(=O)N[C@@H](CCC(=O)O)C(=O)O)cc3)c2c(=O)[nH]1 [Pemetrexed] | 0 | 0 | 5.6 | 8.3
3 | N#Cc1ccc2[nH]c(O)c(-c3ccc(CN4CCOCC4)cn3)c2c1 [AZD-1080] | 0 | 0 | 0 | 0
4 | CNC(=O)[C@@H](NC(=O)[C@H](CC(C)C)[C@H](O)C(=O)NO)C(C)(C)C [Marimastat] | 0 | 0 | 0.2 | 0
5 | Cc1cc(C)c(CNC(=O)c2cc(-c3ccc(CN4CCOCC4)cc3)cc3c2cnn3C2CCCC2)c(=O)[nH]1 [EPZ-5687] | 0 | 0 | 3.5 | 0
6 | C#Cc1cccc(Nc2ncnc3cc(OC)c(OCCCCCCC(=O)NO)cc23)c1 [CUDC-101] | 10.2 | 7.4 | 6.2 | 9.8
7 | CC(C)[C@@H](CS(=O)(=O)C(C)C)N1C(=O)[C@@](C)(CC(=O)O)C[C@H](c2cccc(Cl)c2)[C@H]1c1ccc(Cl)cc1 [AMG-232] | 12.7 | 0 | 0 | 0
8 | CC[C@H](CO)Nc1nc(NCc2ccccc2)c2ncn(C(C)C)c2n1 [Seliciclib] | 0 | 0 | 0 | 0
9 | Cc1ccc(Nc2nccc(N(C)c3ccc4c(C)n(C)nc4c3)n2)cc1S(N)(=O)=O [Pazopanib] | 0 | 0 | 2.7 | 7.9
10 | O=C(/C=C/c1cccnc1)NCCCCC1CCN(C(=O)c2ccccc2)CC1 [Daporinad] | 0 | 0 | 24.6 | 26.8
11 | C[C@]12O[C@H](C[C@]1(O)CO)n1c3ccccc3c3c4c(c5c6ccccc6n2c5c31)CNC4=O [Lestaurtinib] | 0 | 0 | 1.1 | 4.9
12 | CC[C@@H]1C(=O)N(C)c2cnc(Nc3ccc(C(=O)NC4CCN(C)CC4)cc3OC)nc2N1C1CCCC1 [BI 2536] | 0.3 | 0 | 0 | 11.3
13 | COc1ccc(S(=O)(=O)Nc2cccnc2Nc2ccc(O)cc2)cc1 [ABT-751] | 2.1 | 0.1 | 0 | 4.5
14 | CNC(=O)c1cc(Oc2ccc(NC(=O)Nc3ccc(Cl)c(C(F)(F)F)c3)cc2)ccn1 [Sorafenib] | 0 | 0 | 0 | 0
15 | COc1cc2ncnc(Nc3ccc(F)c(Cl)c3)c2cc1NC(=O)/C=C/CN1CCCCC1 [Dacomitinib] | 0 | 4.7 | 0.9 | 0
16 | c1ccc2c(CCNc3ccc(Nc4ccncc4)cc3)c[nH]c2c1 [Serdemetan] | 0 | 0 | 3 | 0.7
17 | CCNC(=O)CCC/C=C\C[C@@H]1[C@@H](/C=C/[C@@H](O)CCc2ccccc2)[C@H](O)C[C@@H]1O [Bimatoprost] | 0 | 0 | 0 | 0
18 | Cn1cnc2c(F)c(Nc3ccc(Br)cc3F)c(C(=O)NOCCO)cc21 [Binimetinib] | 0 | 2.2 | 0 | 2.7
19 | CC(=O)[C@]1(O)Cc2c(O)c3c(c(O)c2[C@@H](O[C@H]2C[C@H](N)[C@H](O)[C@H](C)O2)C1)C(=O)c1ccccc1C3=O [Idarubicin] | 6.6 | 7.5 | 6.4 | 10.7
20 | CCCCCCCCCCCCCCCCCCOP(=O)([O-])OC1CC[N+](C)(C)CC1 [Perifosine] | 0.9 | 0 | 0 | 0.9
21 | COc1cc2c(NC3CCN(C(C)C)CC3)nc(N3CCC(F)(F)CC3)nc2cc1OCCCN1CCCC1 [UNC0642] | 3 | 0.5 | 3.5 | 3.1

Row | Structure (SMILES) | drug sensitivity score (MDA-MB-231 [1]; shRNA: shPPFIA1_1) [DSS] | drug sensitivity score (MDA-MB-231 [1]; shRNA: shScramble) [DSS] | drug sensitivity score (MDA-MB-231 [2]; shRNA: shPPFIA1_1) [DSS] | drug sensitivity score (MDA-MB-231 [2]; shRNA: shScramble) [DSS]
22 | C=CC(=O)Nc1cccc(Nc2nc(Nc3ccc(OCCOC)cc3)ncc2F)c1 [Spebrutinib] | 0 | 0 | 0 | 0.4
23 | CNC(=O)c1ccc(N2C(=S)N(c3cnc(C#N)c(C(F)(F)F)c3)C(=O)C23CCC3)cc1F [ARN 509] | 0 | 0 | 0 | 0.4
24 | CC[C@]1(O)C[C@@H]2CN(CCc3c([nH]c4ccccc34)[C@@](C(=O)OC)(c3cc4c(cc3OC)N(C)[C@H]3[C@@](O)(C(=O)OC)[C@H](OC(C)=O)[C@]5(CC)C=CCN6CC[C@]43[C@@H]65)C2)C1 [Vinblastine] | 9 | 9.2 | 0 | 9.6
25 | N[C@@H]1CCCN(c2c(/C=C3\SC(=O)NC3=O)cccc2-c2ccccc2)C1 [AZD1208] | 0 | 0 | 0 | 0
26 | C=CCN(/C=C1/C(=O)O[C@H](COC)[C@@]2(C)C1=C(O)C(=O)C1=C2[C@H](OC(C)=O)C[C@]2(C)C(=O)CC[C@@H]12)CC=C [Sonolisib] | 0 | 0 | 0 | 0
27 | CCNC(=O)Nc1ccc(-c2nc3c(c(N4CCOC[C@@H]4C)n2)CCN(C2COC2)C3)cc1 [RG-7603] | 0 | 0 | 0 | 2.7
28 | Nc1nccc(-c2c(-c3ccc(F)cc3)ncn2C2CCCCC2)n1 | 0 | 0 | 0 | 0
29 | C=CC(=O)N1CCC(Oc2cc3c(Nc4ccc(Cl)c(Cl)c4F)ncnc3cc2OC)CC1 [Poziotinib] | 0 | 0 | 3.1 | 0
30 | CNC(=O)c1ccc2cc([C@@]3(O)CCn4cncc43)ccc2c1 [Orteronel] | 0 | 0 | 0 | 0
31 | Clc1ccc(C(c2ccccc2Cl)C(Cl)Cl)cc1 (configuration not stated) [Mitotane] | 0 | 0 | 0 | 0
32 | Cn1cc(CNCC2CCN(c3ncc(C(=O)NO)cn3)CC2)c2ccccc21 [Quisinostat] | 8.6 | 8.2 | 8.8 | 11.2
33 | COc1ccc(COc2cc3oc(=O)c4cc(C(C)O)ccc4c3cc2OC)cc1 (configuration not stated) [Palomid-529] | 0 | 0 | 0 | 0
34 | C=C1C[C@@H]2[C@H](CC[C@]3(C)C(=O)CC[C@@H]23)[C@@]2(C)C=CC(=O)C=C12 [Exemestane] | 0 | 0 | 0 | 1.4
35 | NC(=O)N1CCC(CC(=O)N2CCC([C@H]3c4ncc(Br)cc4CCc4cc(Cl)cc(Br)c43)CC2)CC1 [Lonafarnib] | 0 | 0 | 2.4 | 3.1
36 | Cc1cn(-c2cc(NC(=O)c3ccc(C)c(Nc4nccc(-c5cccnc5)n4)c3)cc(C(F)(F)F)c2)cn1 [Nilotinib] | 4.5 | 0.2 | 0 | 3.8
37 | O=C(Nc1ccc(OC(F)(F)F)cc1)c1sccc1NCc1ccnc2ccccc12 [OSI-930] | 0 | 0.9 | 4.5 | 8
38 | CC1(C)CNc2cc(NC(=O)c3cccnc3NCc3ccncc3)ccc21 [Motesanib] | 0 | 0.3 | 0 | 0
39 | CCc1cnn2c(NCc3ccc[n+]([O-])c3)cc(N3CCCC[C@H]3CCO)nc12 [Dinaciclib] | 15.4 | 8.8 | 13.8 | 18.7
40 | CN(C)Cc1ccc(S(=O)(=O)n2ccc(/C=C/C(=O)NO)c2)cc1 [Resminostat] | 7.5 | 4.4 | 2.5 | 7.1
41 | O=c1[nH]cc(F)c(=O)[nH]1 [Fluorouracil] | 0 | 0 | 0 | 0.6
42 | CC(C)NC(=O)COc1cccc(-c2nc(Nc3ccc4[nH]ncc4c3)c3ccccc3n2)c1 [SLx-2119] | 0 | 0 | 0 | 0

Row | Structure (SMILES) | drug sensitivity score (MDA-MB-231 [1]; shRNA: shPPFIA1_1) [DSS] | drug sensitivity score (MDA-MB-231 [1]; shRNA: shScramble) [DSS] | drug sensitivity score (MDA-MB-231 [2]; shRNA: shPPFIA1_1) [DSS] | drug sensitivity score (MDA-MB-231 [2]; shRNA: shScramble) [DSS]
43 | O=C(c1cccc(Cl)c1F)N1CCN(Cc2cccc(Nc3nccs3)n2)CC1 [MK-8745] | 0.5 | 0.3 | 0.9 | 0.3
44 | O=C(/C=C\n1cnc(-c2cc(C(F)(F)F)cc(C(F)(F)F)c2)n1)NNc1ccccn1 [Verdinexor] | 4.4 | 4.2 | 0 | 5.7
45 | C[C@@H]1CCN(C(=O)CC#N)C[C@@H]1N(C)c1ncnc2[nH]ccc12 [Tofacitinib] | 0.9 | 0.9 | 0 | 0
46 | Oc1ccc2c(c1)CC[C@H](c1ccccc1)[C@@H]2c1ccc(OCCN2CCCC2)cc1 [Lasofoxifene] | 0 | 0 | 0 | 0.4
47 | CCOC(=O)CCNc1cc(N2CCc3ccccc3CC2)nc(-c2ccccn2)n1 [GSK-J4] | 7.4 | 8.3 | 10.2 | 11.3
48 | O=C(Nc1cccnc1)N1CCC(Cc2cccc(Oc3ccc(C(F)(F)F)cn3)c2)CC1 [PF-3845] | 4 | 0.3 | 4.3 | 4
49 | O=C(NC1CCNCC1)c1n[nH]cc1NC(=O)c1c(Cl)cccc1Cl [AT7519] | 8.6 | 5.3 | 5.6 | 12.7
50 | COc1cccc2c1C(=O)c1c(O)c3c(c(O)c1C2=O)C[C@@](O)(C(C)=O)C[C@@H]3O[C@H]1C[C@H](N)[C@H](O)[C@H](C)O1 [Daunorubicin] | 0 | 0 | 2.8 | 7.5
51 | CC(C)Oc1cc(Nc2nc(N[C@@H](C)c3ccc(F)cn3)ncc2Cl)n[nH]1 [AZ-23] | 0 | 1 | 0 | 0
52 | Cc1cc2c(C(=O)NC[C@H](C)c3ccccc3)c(O)c(O)cc2c(O)c1-c1c(C)cc2c(C(=O)NC[C@H](C)c3ccccc3)c(O)c(O)cc2c1O [Sabutoclax] | 11.4 | 5.6 | 11.8 | 13.6
53 | Nc1ccn([C@@H]2O[C@H](CO)[C@@H](O)[C@@H]2O)c(=O)n1 [Cytarabine] | 0 | 0 | 0 | 1.6
54 | COc1cc2nccc(Oc3ccc(NC(=O)Nc4cc(C)on4)c(Cl)c3)c2cc1OC [Tivozanib] | 3.3 | 0 | 0 | 1.9
55 | Cn1ncc(Cl)c1-c1cc(C(=O)N[C@H](CN)Cc2ccc(F)c(F)c2)oc1Cl [Uprosertib] | 0 | 0 | 0 | 0
56 | COc1cccc2c1C(=O)c1c(O)c3c(c(O)c1C2=O)C[C@@](O)(/C(CO)=N/NC(=O)CCCCCN1C(=O)C=CC1=O)C[C@@H]3O[C@H]1C[C@H](N)[C@H](O)[C@H](C)O1 [Aldoxorubicin] | 0 | 0 | 1.2 | 7.3
57 | CN(c1ccccc1CNc1nc(Nc2ccc3c(c2)CC(=O)N3)ncc1C(F)(F)F)S(C)(=O)=O | 4.1 | 4 | 2.3 | 5.3
58 | COc1cc(OC)c(/C=C/S(=O)(=O)Cc2ccc(OC)c(NCC(=O)O)c2)c(OC)c1 [Rigosertib] | 2.4 | 2.4 | 0 | 5.3
59 | NC(=O)NO [Hydroxyurea] | 0 | 0 | 0 | 0
60 | CNC(=O)c1ccc(N2C(=S)N(c3ccc(C#N)c(C(F)(F)F)c3)C(=O)C23CCC3)cc1F [RD162] | 0.8 | 0 | 0 | 0
61 | CC[C@H](CC#N)OC(=O)N[C@@H](C)c1cccc(NC(=O)Nc2ccc(-c3cnco3)c(OC)c2)c1 [AVN944] | 0 | 0 | 0 | 5.4
62 | CC(C)(C#N)c1cc(Cn2cncn2)cc(C(C)(C)C#N)c1 [Anastrozole] | 0 | 0 | 0 | 0
63 | CO[C@@H](C(=O)N1Cc2[nH]nc(NC(=O)c3ccc(N4CCN(C)CC4)cc3)c2C1)c1ccccc1 [Danusertib] | 0 | 0.2 | 0 | 0
